In ChEMBL document CHEMBL1201862, “PubChem BioAssay data set” (2004):
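In this assay, cells in 96-well plates receive the compound at five concentrations for 48 hours. Endpoints are linearly interpolated between the surrounding concentrations. GI50 = concentration required for 50% inhibition of growth.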 Active and inactive are the calls of the source. Rule as the data show it: active = GI50 up to about 1.1 µM and inactive = higher.

Legend:
Assay in all cases: NCI-60 cell line screen, 48 h
CAKI-1 = system: CAKI-1
HCC 2998 = system: HCC 2998
HT-29 = system: HT-29
IGROV-1 = system: IGROV-1
OVCAR-3 = system: OVCAR-3
OVCAR-4 = system: OVCAR-4
OVCAR-5 = system: OVCAR-5
OVCAR-8 = system: OVCAR-8
RPMI-8226 = system: RPMI-8226
SF-295 = system: SF-295
SNB-19 = system: SNB-19
SW-620 = system: SW-620
TK-10 = system: TK-10
U-251 = system: U-251
UACC-257 = system: UACC-257
UACC-62 = system: UACC-62
UO-31 = system: UO-31

Measured: GI50

O=C1[C@H]2ON(c3ccccc3)C(c3ccc(Cl)cc3Cl)[C@H]2C(=O)N1c1ccc(Cc2ccc(N3C(=O)[C@@H]4ON(c5ccccc5)C(c5ccc(Cl)cc5Cl)[C@@H]4C3=O)cc2)cc1 (some centres not stated)
inactive: CAKI-1 > 100 µM | HCC 2998 > 100 µM | HT-29 > 100 µM | IGROV-1 > 100 µM | OVCAR-3 > 100 µM | OVCAR-4 > 100 µM | OVCAR-5 > 100 µM | OVCAR-8 > 100 µM | RPMI-8226 > 100 µM | SF-295 > 100 µM | SNB-19 > 100 µM | SW-620 > 100 µM | TK-10 > 100 µM | U-251 > 100 µM | UACC-257 > 100 µM | UACC-62 > 100 µM | UO-31 > 100 µM

O=C(c1ccc(Cl)cc1)c1ccc(OCCCOc2ccc(C(=O)c3ccc(Cl)cc3)cc2Cl)c(Cl)c1
inactive: CAKI-1 > 100 µM | HCC 2998 > 100 µM | HT-29 > 100 µM | IGROV-1 > 100 µM | OVCAR-3 > 100 µM | OVCAR-4 > 100 µM | OVCAR-5 > 100 µM | OVCAR-8 > 100 µM | RPMI-8226 > 100 µM | SF-295 > 100 µM | SNB-19 > 100 µM | SW-620 > 100 µM | TK-10 > 100 µM | U-251 > 100 µM | UACC-257 > 100 µM | UACC-62 > 100 µM

COc1cc2c(cc1OC)[C@H]1C(COC(=O)Nc3ccccc3)CN1CC2 (some centres not stated)
inactive: CAKI-1 > 100 µM | HCC 2998 67.6 µM | HT-29 74.5 µM | IGROV-1 > 100 µM | OVCAR-3 > 100 µM | OVCAR-4 > 100 µM | OVCAR-5 > 100 µM | OVCAR-8 > 100 µM | RPMI-8226 > 100 µM | SF-295 > 100 µM | SNB-19 > 100 µM | SW-620 > 100 µM | TK-10 > 100 µM | U-251 > 100 µM | UACC-62 > 100 µM | UO-31 > 100 µM

Cc1cc2oc(=O)[nH]c(=S)c2c(C)c1C
inactive: HCC 2998 > 100 µM | HT-29 > 100 µM | IGROV-1 > 100 µM | OVCAR-3 > 100 µM | OVCAR-4 45.2 µM | OVCAR-8 > 100 µM | RPMI-8226 > 100 µM | SF-295 > 100 µM | SNB-19 > 100 µM | SW-620 > 100 µM | TK-10 > 100 µM | U-251 > 100 µM | UACC-257 > 100 µM | UACC-62 > 100 µM | UO-31 > 100 µM

C/C(=N\N=C(N)N)c1sc(-c2nc(C)c(/C(C)=N/N=C(N)N)s2)nc1C
inactive: CAKI-1 > 100 µM | HCC 2998 > 100 µM | HT-29 > 66.8 µM | IGROV-1 > 100 µM | OVCAR-3 > 85.5 µM | OVCAR-4 > 85.5 µM | OVCAR-5 > 100 µM | OVCAR-8 > 100 µM | RPMI-8226 39.3 µM | SF-295 > 100 µM | SNB-19 > 100 µM | SW-620 > 100 µM | TK-10 > 100 µM | U-251 > 95.3 µM | UACC-257 > 100 µM | UACC-62 > 100 µM | UO-31 > 91 µM

COc1cc(CC2c3cc(OC)c(OC)cc3CCN2C)ccc1O (configuration not stated)
inactive: CAKI-1 > 100 µM | HCC 2998 > 100 µM | HT-29 > 100 µM | OVCAR-3 > 100 µM | OVCAR-4 > 100 µM | OVCAR-5 > 100 µM | OVCAR-8 > 100 µM | RPMI-8226 > 100 µM | SF-295 > 100 µM | SNB-19 > 100 µM | SW-620 > 100 µM | TK-10 > 100 µM | U-251 > 100 µM | UACC-257 > 100 µM | UO-31 > 100 µM

O[C@]12c3ccccc3C1CCCC2N1CCOCC1 (some centres not stated)
inactive: HT-29 > 100 µM | OVCAR-4 > 100 µM | OVCAR-8 > 100 µM | RPMI-8226 > 100 µM | SF-295 > 100 µM | SNB-19 > 100 µM | SW-620 > 100 µM | TK-10 > 100 µM | U-251 > 100 µM | UACC-257 > 100 µM | UACC-62 > 100 µM | UO-31 > 100 µM

C=C(C)C1Cc2c(cc(OC)c3c(=O)c4ccccc4n(C)c23)O1 (configuration not stated)
inactive: CAKI-1 > 100 µM | HCC 2998 > 100 µM | HT-29 > 100 µM | IGROV-1 > 100 µM | OVCAR-3 > 100 µM | OVCAR-4 > 100 µM | OVCAR-5 > 100 µM | OVCAR-8 > 100 µM | RPMI-8226 > 100 µM | SF-295 > 100 µM | SNB-19 > 100 µM | SW-620 > 100 µM | TK-10 > 100 µM | U-251 > 100 µM | UACC-257 > 100 µM | UACC-62 37.8 µM | UO-31 > 100 µM

CSc1n[n+]2c(s1)SCCC2
inactive: CAKI-1 31.9 µM | HCC 2998 > 100 µM | HT-29 > 100 µM | IGROV-1 25.8 µM | OVCAR-3 > 100 µM | OVCAR-4 > 100 µM | OVCAR-5 > 100 µM | OVCAR-8 > 100 µM | SF-295 > 100 µM | SNB-19 > 100 µM | SW-620 66.1 µM | TK-10 > 100 µM | U-251 > 100 µM | UACC-257 > 100 µM | UACC-62 > 100 µM | UO-31 19.8 µM

CCCCCCCCCCSC(=O)NC
inactive: CAKI-1 25.9 µM | HCC 2998 47.2 µM | HT-29 29.7 µM | IGROV-1 79.8 µM | OVCAR-3 54.2 µM | OVCAR-4 36.7 µM | OVCAR-5 80.9 µM | OVCAR-8 28 µM | RPMI-8226 21.9 µM | SF-295 50.1 µM | SNB-19 28.8 µM | SW-620 39.6 µM | TK-10 37.9 µM | U-251 25.8 µM | UACC-257 27.9 µM | UACC-62 35.5 µM | UO-31 23.4 µM

CCCCCCCCCCCCCCCCOCC(CN(C)CCN(C)C)OCCCCCCCCCCCCCCCC (configuration not stated)
inactive: CAKI-1 > 100 µM | HCC 2998 > 100 µM | HT-29 > 100 µM | IGROV-1 > 100 µM | OVCAR-3 > 100 µM | OVCAR-4 > 100 µM | OVCAR-5 > 100 µM | OVCAR-8 > 100 µM | RPMI-8226 > 100 µM | SF-295 > 100 µM | SNB-19 > 100 µM | SW-620 > 100 µM | TK-10 > 100 µM | U-251 > 100 µM | UACC-257 > 100 µM | UACC-62 > 100 µM | UO-31 > 100 µM

CCCCCCCCCCCCCCCCCC(=O)O[C@H](COC(=O)CCCCCCCCCCC)COC(=O)CCCCCCCCCCCCCCC
inactive: CAKI-1 > 100 µM | HCC 2998 > 100 µM | HT-29 > 100 µM | IGROV-1 > 100 µM | OVCAR-3 > 100 µM | OVCAR-4 > 100 µM | OVCAR-5 > 100 µM | OVCAR-8 > 100 µM | RPMI-8226 > 100 µM | SF-295 > 100 µM | SNB-19 > 100 µM | SW-620 > 100 µM | TK-10 > 100 µM | U-251 > 100 µM | UACC-257 > 100 µM | UACC-62 > 100 µM | UO-31 > 100 µM

NS(=O)(=O)c1ccc(Nc2c3ccccc3nc3c(C(=O)N4CCN(CCO)CC4)cccc23)cc1
inactive: CAKI-1 > 100 µM | HCC 2998 > 100 µM | HT-29 71.8 µM | IGROV-1 > 100 µM | OVCAR-3 > 100 µM | OVCAR-4 > 100 µM | OVCAR-5 > 100 µM | OVCAR-8 > 100 µM | SF-295 > 100 µM | SNB-19 > 100 µM | SW-620 > 100 µM | TK-10 > 100 µM | U-251 > 100 µM | UACC-257 > 100 µM | UACC-62 > 100 µM | UO-31 > 100 µM

COC(=O)C(C(=O)C(=O)Nc1ccc(OC)cc1[N+](=O)[O-])c1nc2cc(C)c(C)cc2nc1O (configuration not stated)
inactive: CAKI-1 > 100 µM | HCC 2998 > 100 µM | HT-29 > 100 µM | IGROV-1 > 100 µM | OVCAR-3 > 100 µM | OVCAR-4 > 100 µM | OVCAR-8 > 100 µM | SF-295 > 100 µM | SNB-19 > 100 µM | SW-620 > 100 µM | TK-10 > 100 µM | U-251 > 100 µM | UACC-257 > 100 µM | UACC-62 > 100 µM | UO-31 > 100 µM

Clc1ccc(-n2nnc(C3=NCCN3)c2-c2ccccc2)cc1
inactive: CAKI-1 > 100 µM | HCC 2998 > 100 µM | HT-29 > 100 µM | IGROV-1 > 100 µM | OVCAR-3 > 100 µM | OVCAR-4 > 100 µM | OVCAR-5 > 100 µM | OVCAR-8 > 100 µM | RPMI-8226 > 100 µM | SF-295 > 100 µM | SNB-19 > 100 µM | SW-620 > 100 µM | TK-10 66.8 µM | U-251 > 100 µM | UACC-257 > 100 µM | UACC-62 > 100 µM | UO-31 43.3 µM

CC(=O)COC(=O)CC(C)=O
inactive: CAKI-1 > 100 µM | HCC 2998 > 100 µM | HT-29 > 100 µM | IGROV-1 > 100 µM | OVCAR-3 > 100 µM | OVCAR-4 > 100 µM | OVCAR-5 > 100 µM | OVCAR-8 > 100 µM | RPMI-8226 > 100 µM | SF-295 > 100 µM | SNB-19 > 100 µM | SW-620 > 100 µM | TK-10 > 100 µM | U-251 > 100 µM | UACC-257 > 100 µM | UACC-62 > 100 µM | UO-31 > 100 µM
